In US20180346513A1, “METHOD FOR OBTAINING TUMOR PEPTIDES AND USES THEREOF” (ISTITUTO EUROPEO DI ONCOLOGIA S.R.L., priority 2015, published 2018):
Where a SMILES comes first, the peptide text is derived from it. The star is where a group is joined. Cbz = O=C(OCc1ccccc1)*

How the values were obtained:
C57BL/6J mice = experiment: In vivo immunization with supernatant in CFA, IFN-gamma after in vitro recall of lymph node cells; conditions: B16 OVA cells treated with heptanol
Procedure: Mice were immunized subcutaneusly with 100 μL of emulsion with supernatant containing released peptides and either Freund's Complete Adjuvant (CFA) or Freund's Incomplete Adjuvant (IFA). […] After 72 hours, the supernatant was collected and IFN-γ production was measured by ELISA.
To investigate whether the tumor peptides released from infected tumor cells could induce an in vivo immune response, C57BL/6J mice were immunized in the footpad with supernatant, obtained from B16 OVA cells infected or not with Salmonella SL3261AT, emulsified with Freund's complete adjuvant (CFA).
Briefly, nine days after immunization, the popliteal lymph nodes were removed and cells were stimulated in vitro with PPD (Tuberculin purified protein derivated), as a positive control, and OVA protein. After 72 hours of incubation, the amount of IFN-gamma secretion was assessed by ELISA to evaluate the activation of immune cells.

[1] = tested on: MHC class I complex on the surface of T2 cells; experiment: T2 assay for peptide binding (stabilization of HLA-A0201 on T2 cells); type: cell-based, human; conditions: tumor cells treated with the gap junction blocker before infection
Procedure: The next day, the cells were washed with FACS buffer (PBS, 0.1% sodium azide, 5% fetal bovin serum) and incubated for 10 min with blocking buffer (200 μg/mL mouse IgG in FACS buffer). Then, the cells were incubated for 20 minutes at +4° C. with BB7.2, an HLA-A2 conformation specific mouse antibody. The cells were washed twice with FACS buffer and fixed in paraformaldehyde for later acquisition by Accuri C6 Flow Cytometer (BD).
In order to investigate the release of MHC class I peptides by Salmonella infected tumor cells, inventors exploited the ability of exogenous peptides to stabilize the MHC class I complex on the surface of T2 cells. T2 are an HLA-A0201 hybrid human cell line lacking TAP-2 (transporter-associated with antigen processing) and consequently are defective in loading class I molecules with antigenic peptides generated in the cytosol. This leads to very unstable MHC class I molecules on the cell surface. […]
Briefly, inventors infected human melanoma cells SKmel-24 and colorectal adenocarcinoma cells HT29, with Vivofit®, an oral typhoid vaccine that contains live, attenuated cells of the bacteria Salmonella enterica serovar Thyphi (TY21a), and inventors collected the supernatant as described in Materials and Methods. […] Surface expression of HLA-A0201 was evaluated using a conformation-specific mouse antibody, as described in Materials and Methods.

[2] = tested on: Mart-1 (26-35) specific CTLs; experiment: IFN-gamma production of Mart-1 specific CTLs cocultured with moDCs or PDC loaded with supernatant; type: cell-based, human
Procedure: To generate peptide-specific CTLs from PBMC, 106 PBMC HLA-A2+ were cultured in 1 mL of RPMI 1640 medium (supplemented with 5% human serum, 2 mM L-Glutamine, 100 U/mL Penicillin, 100 μg/mL Streptomycin, 10 μg/mL Gentamicin, 10 μg/mL beta-mercaptoethanol and 1% nonessential amino acids) in 24-well-plates. To this, 2×106 Mart-1-pulsed and irradiated (10 Gy) PBMC (HLA-A2) were added as antigen presenting cells in the same medium supplemented with 100 U/mL IL-2. To pulse PBMC they were incubated for 90 minutes at 37° C. in RPMI supplemented with 50 μM of peptide. After incubation, cell were washed twice and irradiated before mixing with the responding cells. The cells were stimulated at intervals of 10 days with irradiated peptide-pulsed autologous PBMC and 100 U/mL IL-2.
To evaluate the release of antigenic peptides inventors infected human melanoma cells SKmel24 and 624.38 with Salmonella TY21a in presence or not of heptanol and the supernatant was harvested as described in Materials and Methods.
After 72 hours of coculture, the amount of IFN-gamma secretion was measured by ELISA.

[3] = target: T1, connexin hemichannels on the surface of melanoma cells (Mus musculus, UniProt P23242); experiment: Adenosine 5'-triphosphate (ATP) bioluminescent assay, extracellular ATP of B16 and B16 OVA cells; type: cell-based; conditions: B16 and B16 OVA cells pretreated with heptanol (1 mM)
T1 construct: opening of connexin hemichannels on the surface of melanoma cells; endogenous in cells; host or cells: B16 and B16 OVA mouse melanoma cells
T1 sequence (P23242 2-382): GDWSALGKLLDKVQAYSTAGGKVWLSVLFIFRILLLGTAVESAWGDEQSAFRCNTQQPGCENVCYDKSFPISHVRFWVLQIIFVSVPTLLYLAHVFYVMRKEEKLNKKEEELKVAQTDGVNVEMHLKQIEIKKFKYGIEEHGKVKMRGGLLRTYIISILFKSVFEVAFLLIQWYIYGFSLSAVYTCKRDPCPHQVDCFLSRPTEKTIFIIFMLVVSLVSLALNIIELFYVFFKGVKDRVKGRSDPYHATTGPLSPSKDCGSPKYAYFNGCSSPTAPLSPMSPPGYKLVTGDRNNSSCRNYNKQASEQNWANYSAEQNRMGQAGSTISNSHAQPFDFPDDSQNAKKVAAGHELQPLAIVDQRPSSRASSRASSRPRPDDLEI
Procedure: Single bacterial colonies were grown overnight and restarted the next day to reach an absorbance at 600 nm ranging between 0.550 and 0.650 corresponding to 0,550-0,650×10^9 colony—forming units (CFUs)/mL. Tumor cells were incubated with or without Gap Junctions blocker, Heptanol (1 mM) for 1 hour and half at 37° C. Then, cells were incubated with bacteria for 1 hour and half at 37° C. at a cell-to-bacteria ratio of 1:50, in the appropriate medium without antibiotics. After incubation, the cells were washed and incubated at 37° C. in medium supplemented with gentamicin ([…]) for 2 hours. […]
Adenosine 5′-triphosphate (ATP) Biolumescent Assay (CellTiter-Glo Luminescent cell viability Assay, Promega) allow to measure the quantity of ATP containing in the samples. […]
Briefly, 100 μL of Assay Mix solution were added to a reaction vial for 3 minutes at room temperature; then rapidly were added […] of sample diluent, mixed and immediately measured the amount of light produced. […]
In order to assess whether Salmonella is able to stimulate the opening of connexin hemichannels on the surface of melanoma cells, inventors measured ATP extracellular concentration using an adenosine 5′-thriphosfate (ATP) bioluminescent assay (as described in Materials and Methods) in Salmonella treated B16 cells. […]

[4] = tested on: mouse melanoma cell line B16; experiment: Antibody response (total IgG, ELISA) to B16 after immunization with supernatant in IFA; type: in vivo, mice; conditions: B16 cells treated with inhibitor before supernatant collection
Procedure: (§1) Mice were immunized subcutaneusly with 100 μL of emulsion with supernatant containing released peptides and either Freund's Complete Adjuvant (CFA) or Freund's Incomplete Adjuvant (IFA). Nine days after the immunization, mice were killed, popliteal lymph nodes were smashed and cells were plated in flat-bottom 96-well plates and stimulated with PPD (3 μg/mL), OVA protein (30 μg/mL), OVA peptide 323-339 (3 μg/mL) or OVA peptide 257-264 (3 μg/mL). After 72 hours, the supernatant was collected and IFN-γ production was measured by ELISA.
(§2) To evaluate antibody response mice were killed four weeks after immunization, and serum was collected. The antibody titer to Salmonella and B16 antigens was evaluated by ELISA.
(§3) In order to identify the type of released tumor antigens, C57BL/6J mice were immunized subcutaneously with supernatant obtained from Salmonella infected or uninfected B16 cells treated or not with the gap-junction blocker (heptanol) or the proteasome inhibitor (MG132), emulsified with Freund's Incomplete adjuvant (IFA). Four weeks later inventors evaluated the amount of total IgG specific to Salmonella SL3261AT and to mouse melanoma cell line B16 by ELISA.

Salmonella SL3261AT = experiment: Antibody response (total IgG, ELISA) to Salmonella after immunization with supernatant in IFA; type: in vivo, mice; conditions: B16 cells treated with inhibitor before supernatant collection
Procedure: as §1, §2, §3

Row | Molecule | Effect on IFN-gamma production induced by supernatant immunization (C57BL/6J mice) | Effect on the MFI increase by supernatant of infected tumor cells [1] | Effect on CTL activation by supernatant of infected melanoma cells ([2]; tumor cells treated with the gap junction blocker) | Effect on Salmonella-induced release of extracellular ATP [3] | Effect on antibody response to B16 tumor peptides [4] | Effect on antibody response to Salmonella antigens (Salmonella SL3261AT) | Response of CTLs after exogenous addition of peptide ([2]; exogenous addition to blocker-treated condition)
1 | CCCCCCCO [heptanol] | reduced | abolished | significantly inhibits | significantly reduced | reduced | reduced | 
2 | CC(C)C[C@@H](C=O)NC(=O)[C@H](CC(C)C)NC(=O)[C@H](CC(C)C)NC(=O)OCc1ccccc1 [MG132] (Cbz-Leu-Leu-Leu-aldehyde) |  |  |  |  | reduced | reduced | 
3 | Mart-1 (26-35): Mart-1 (26-35) peptide, positive control |  |  |  |  |  |  | restored completely the response
